Test: recombinant barcode read abundance after kanamycin selection (control-corrected) (log10(CPM+1)); higher = more efficient recombination; sequences stand for … in AGTGCAGAGAAAATCGGCCAGTTTTCTCTGCCTGCAGTCCGCATGCCGT…AGATTTATGCAGCGGACTGCCTTTCTCCCAAAGTGATAAACCGGACAGTATCATGGACCGGTTTTCCCGGTAATCCGTATTTGCAAGGTTGGTTTCACT; site = the 11-nt target
In short: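 IS621 bridge RNA target-binding loops were paired with targets in a pooled library tested in E. coli. After co-electroporation with a donor plasmid, cells were plated in two replicates on chloramphenicol/ampicillin LB agar (control) and on chloramphenicol/ampicillin/kanamycin carrying 0.1 mM IPTG. Barcodes at recombinant junctions were counted as counts per million, averaged and control-corrected to give recombination efficiency. Values are log10(CPM+1).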
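Also: IS621 recombinase and bridge RNA in Escherichia coli cells.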

Row | Sequence | recombinant barcode read abundance (log10)
1 | TCTTGGACTTGGGTTCTAACCTGTTGCTT (site TCTTGGACTGA) | 0.0999
2 | TCTTGGACTTGGGTTCTAACCTGTTGCTT (site TCTTGGACTTA) | 0.138
3 | TCTTGGTCTTGGGTTCTAACCTGTTGCTA (site TCTTGGTCTTA) | 0.0413
4 | TCTTGGTCTTGGGTTCTAACCTGTTGCTA (site TTATGGTCTTA) | 0.208
5 | TCTTGTCCTTGGGTTCTAACCTGTTGCGA (site TCTTGTCCTAC) | 0.0306
6 | TCTTGTCCTTGGGTTCTAACCTGTTGCGA (site TCTTGTCCTCC) | 0.268
7 | TCTTGTCCTTGGGTTCTAACCTGTTGCGA (site TCTTGTCCTGC) | 0.343
8 | TCTTGTCCTTGGGTTCTAACCTGTTGCGA (site TCTTGTCCTTC) | 0.253
9 | TCTTGTCCTTGGGTTCTAACCTGTTGCGC (site TCTTGTCCTAC) | 0.0303
10 | TCTTGTCCTTGGGTTCTAACCTGTTGCGC (site TCTTGTCCTCC) | 0.093
11 | TCTTGTCCTTGGGTTCTAACCTGTTGCGC (site TCTTGTCCTGC) | 0.385
12 | TCTTGTCCTTGGGTTCTAACCTGTTGCGC (site TCTTGTCCTTC) | 0.0581
13 | TCTTGTCCTTGGGTTCTAACCTGTTGCGT (site TCTTGTCCTAC) | 0.682
14 | TCTTGTCCTTGGGTTCTAACCTGTTGCGT (site TCTTGTCCTCC) | 0.0386
15 | TCTTGTCCTTGGGTTCTAACCTGTTGCGT (site TCTTGTCCTGC) | 0.172
16 | TCTTGTCCTTGGGTTCTAACCTGTTGCGT (site TCTTGTCCTTC) | 0.0168
17 | TGAAACGCTTGGGTTCTAACCTGTTGCTT (site TGAAACGCTAA) | 1.2
18 | TGAAACGCTTGGGTTCTAACCTGTTGCTT (site TGAAGCCCTAA) | 0.0163
19 | TGAAAGCCTTGGGTTCTAACCTGTTGCTT (site TGAAAGCCTAA) | 0.215
20 | TGAAAGCCTTGGGTTCTAACCTGTTGCTT (site TGGAAGTCTAA) | 0.0888
21 | TGAAGCCCTTGGGTTCTAACCTGTTGCTT (site TGAAACGCTAA) | 0.179
22 | TGAAGCCCTTGGGTTCTAACCTGTTGCTT (site TGAAGCCCTAA) | 0.321

Row | Sequence | recombinant barcode read abundance (log10)
23 | TGAAGTACTTGGGTTCTAACCTGTTGCCT (site TGAAATACTAG) | 0.35
24 | TGAAGTACTTGGGTTCTAACCTGTTGCCT (site TGAACTACTAG) | 0.169
25 | TGAAGTACTTGGGTTCTAACCTGTTGCCT (site TGAAGTACTAG) | 0.257
26 | TGAAGTACTTGGGTTCTAACCTGTTGCCT (site TGAATTACTAG) | 0
27 | TGAATGACTTGGGTTCTAACCTGTTGCCT (site TGAATGACTAG) | 0.544
28 | TGAATGACTTGGGTTCTAACCTGTTGCCT (site TGGATGCCTAG) | 0.0355
29 | TGAATGTCTTGGGTTCTAACCTGTTGCCT (site TGAAAGTCTAG) | 0.0491
30 | TGAATGTCTTGGGTTCTAACCTGTTGCCT (site TGAACGTCTAG) | 0.0549
31 | TGAATGTCTTGGGTTCTAACCTGTTGCCT (site TGAAGGTCTAG) | 0.0166
32 | TGAATGTCTTGGGTTCTAACCTGTTGCCT (site TGAATGTCTAG) | 1.23
33 | TGACACACTTGGGTTCTAACCTGTTGCTG (site TGACACACTCA) | 2.22
34 | TGACACACTTGGGTTCTAACCTGTTGCTG (site TGAGACACTCA) | 0.127
35 | TGACAGTCTTGGGTTCTAACCTGTTGCAG (site CACTTAACTTG) | 0.0862
36 | TGACAGTCTTGGGTTCTAACCTGTTGCAG (site TGACAGTCTCT) | 1.42
37 | TGACATGCTTGGGTTCTAACCTGTTGCCT (site TGAAATGCTAG) | 0.108
38 | TGACATGCTTGGGTTCTAACCTGTTGCCT (site TGACATGCTAG) | 1.37
39 | TGACATGCTTGGGTTCTAACCTGTTGCCT (site TGAGATGCTAG) | 0.0442
40 | TGACATGCTTGGGTTCTAACCTGTTGCCT (site TGATATGCTAG) | 0.172
41 | TGACCCTCTTGGGTTCTAACCTGTTGCCT (site AGACCCTCTAG) | 0.703
42 | TGACCCTCTTGGGTTCTAACCTGTTGCCT (site CGACCCTCTAG) | 0.465
43 | TGACCCTCTTGGGTTCTAACCTGTTGCCT (site GGACCCTCTAG) | 0.0227
44 | TGACCCTCTTGGGTTCTAACCTGTTGCCT (site TGACCCTCTAG) | 2.39

Row | Sequence | recombinant barcode read abundance (log10)
45 | TGACGTCCTTGGGTTCTAACCTGTTGCAT (site TGACGTCCTAA) | 0.0504
46 | TGACGTCCTTGGGTTCTAACCTGTTGCAT (site TGACGTCCTAC) | 0.0943
47 | TGACGTCCTTGGGTTCTAACCTGTTGCAT (site TGACGTCCTAG) | 0.0926
48 | TGACGTCCTTGGGTTCTAACCTGTTGCAT (site TGACGTCCTAT) | 0.695
49 | TGACGTCCTTGGGTTCTAACCTGTTGCTT (site TGACGTCCTAA) | 0.293
50 | TGACGTCCTTGGGTTCTAACCTGTTGCTT (site TGACGTCCTAC) | 0.033
51 | TGACGTCCTTGGGTTCTAACCTGTTGCTT (site TGACGTCCTAG) | 0.122
52 | TGACGTCCTTGGGTTCTAACCTGTTGCTT (site TGACGTCCTAT) | 0.251
53 | TGAGATGCTTGGGTTCTAACCTGTTGCCT (site TGAAATGCTAG) | 0.199
54 | TGAGATGCTTGGGTTCTAACCTGTTGCCT (site TGACATGCTAG) | 0.026
55 | TGAGATGCTTGGGTTCTAACCTGTTGCCT (site TGAGATGCTAG) | 1.72
56 | TGAGATGCTTGGGTTCTAACCTGTTGCCT (site TGATATGCTAG) | 0.124
57 | TGAGATTCTTGGGTTCTAACCTGTTGCAT (site TGAGATTCTAT) | 1.55
58 | TGAGATTCTTGGGTTCTAACCTGTTGCAT (site TGTGATCCTAT) | 0.0159
59 | TGAGCGGCTTGGGTTCTAACCTGTTGCCT (site TGAGAGGCTAG) | 0.143
60 | TGAGCGGCTTGGGTTCTAACCTGTTGCCT (site TGAGCGGCTAG) | 0.438
61 | TGAGCGGCTTGGGTTCTAACCTGTTGCCT (site TGAGGGGCTAG) | 0.00469
62 | TGAGCGGCTTGGGTTCTAACCTGTTGCCT (site TGAGTGGCTAG) | 0.0667
63 | TGAGTACCTTGGGTTCTAACCTGTTGCTT (site TGAGTACCTAA) | 1.39
64 | TGAGTACCTTGGGTTCTAACCTGTTGCTT (site TGAGTCCCTAA) | 0.0336
65 | TGAGTACCTTGGGTTCTAACCTGTTGCTT (site TGAGTGCCTAA) | 0.856
66 | TGAGTACCTTGGGTTCTAACCTGTTGCTT (site TGAGTTCCTAA) | 0.144

Row | Sequence | recombinant barcode read abundance (log10)
67 | TGAGTCCCTTGGGTTCTAACCTGTTGCAG (site AAGTGGTCTTA) | 0.149
68 | TGAGTCCCTTGGGTTCTAACCTGTTGCAG (site TGAGTCCCTCT) | 2.79
69 | TGAGTCCCTTGGGTTCTAACCTGTTGCTA (site TGAGTCCCTTA) | 2.27
70 | TGAGTCCCTTGGGTTCTAACCTGTTGCTA (site TGGGTCCCTAA) | 0.0131
71 | TGAGTGGCTTGGGTTCTAACCTGTTGCCT (site TGAGAGGCTAG) | 0.129
72 | TGAGTGGCTTGGGTTCTAACCTGTTGCCT (site TGAGCGGCTAG) | 0.108
73 | TGAGTGGCTTGGGTTCTAACCTGTTGCCT (site TGAGGGGCTAG) | 0.00884
74 | TGAGTGGCTTGGGTTCTAACCTGTTGCCT (site TGAGTGGCTAG) | 0.749
75 | TGATAGCCTTGGGTTCTAACCTGTTGCCT (site AGATAGCCTAG) | 0.063
76 | TGATAGCCTTGGGTTCTAACCTGTTGCCT (site CGATAGCCTAG) | 0.0141
77 | TGATAGCCTTGGGTTCTAACCTGTTGCCT (site GGATAGCCTAG) | 0.159
78 | TGATAGCCTTGGGTTCTAACCTGTTGCCT (site TGATAGCCTAG) | 0.901
79 | TGATATTCTTGGGTTCTAACCTGTTGCCT (site ACCAGCCCTCA) | 0.448
80 | TGATATTCTTGGGTTCTAACCTGTTGCCT (site TGATATTCTAG) | 0.245
81 | TGATCTCCTTGGGTTCTAACCTGTTGCAT (site TGATCTCCTAA) | 0.186
82 | TGATCTCCTTGGGTTCTAACCTGTTGCAT (site TGATCTCCTAT) | 0.28
83 | TGATCTCCTTGGGTTCTAACCTGTTGCTT (site TGATCTCCTAA) | 0.0107
84 | TGATCTCCTTGGGTTCTAACCTGTTGCTT (site TGATCTCCTAT) | 0.0466
85 | TGCCAGCCTTGGGTTCTAACCTGTTGCCT (site TGCCAGACTAT) | 0.114
86 | TGCCAGCCTTGGGTTCTAACCTGTTGCCT (site TGCCAGCCTAG) | 0.0668

Source: the supplement of paper PMC11208160
